Experimental data reported in PubChem BioAssay (NCI).
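GI50: concentration for 50% inhibition of growth. TGI: total growth inhibition.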

What was measured:
Assay in all cases: DTP human tumour cell line panel, 384-well format
MALME-3M melanoma = system: MALME-3M melanoma
SN12C renal = system: SN12C renal
RXF 393 renal = system: RXF 393 renal
HL-60(TB) leukemia = system: HL-60(TB) leukemia
EKVX NSCLC = system: EKVX NSCLC
NCI-H226 lung = system: NCI-H226 lung
OVCAR-3 ovarian = system: OVCAR-3 ovarian
PC-3 prostate = system: PC-3 prostate
KM12 colon = system: KM12 colon
OVCAR-4 ovarian = system: OVCAR-4 ovarian
ACHN renal = system: ACHN renal
SNB-75 CNS = system: SNB-75 CNS
MOLT-4 leukemia = system: MOLT-4 leukemia
NCI-H23 lung = system: NCI-H23 lung
SF-539 CNS = system: SF-539 CNS
MDA-MB-231 breast = system: MDA-MB-231 breast
SK-OV-3 ovarian = system: SK-OV-3 ovarian
A498 renal = system: A498 renal
HOP-92 NSCLC = system: HOP-92 NSCLC
UACC-257 melanoma = system: UACC-257 melanoma
HOP-62 NSCLC = system: HOP-62 NSCLC
SNB-19 CNS = system: SNB-19 CNS
TK-10 renal = system: TK-10 renal
NCI-H322M lung = system: NCI-H322M lung
COLO 205 colon = system: COLO 205 colon
CAKI-1 renal = system: CAKI-1 renal
DU-145 prostate = system: DU-145 prostate
BT-549 breast = system: BT-549 breast
LOX IMVI melanoma = system: LOX IMVI melanoma
SF-295 CNS = system: SF-295 CNS
M14 melanoma = system: M14 melanoma
HS 578T breast = system: HS 578T breast
SK-MEL-28 melanoma = system: SK-MEL-28 melanoma
IGROV1 ovarian = system: IGROV1 ovarian
UO-31 renal = system: UO-31 renal
HT29 colon = system: HT29 colon
HCT-116 colon = system: HCT-116 colon
A549 NSCLC = system: A549 NSCLC
NCI/ADR-RES ovarian = system: NCI/ADR-RES ovarian
SR leukemia = system: SR leukemia
OVCAR-8 ovarian = system: OVCAR-8 ovarian
MDA-MB-468 breast = system: MDA-MB-468 breast
CCRF-CEM leukemia = system: CCRF-CEM leukemia
SW-620 colon = system: SW-620 colon
SF-268 CNS = system: SF-268 CNS
HCC-2998 colon = system: HCC-2998 colon
K-562 leukemia = system: K-562 leukemia
HCT-15 colon = system: HCT-15 colon

O=C(O)C1(Cc2cccc(Nc3nccs3)n2)CCC(Oc2cccc(Cl)c2F)CC1 (stereo unspecified)
GI50 (MALME-3M melanoma): 18.2 µM
TGI (MALME-3M melanoma): 37.4 µM
GI50 (SN12C renal): 11.1 µM
TGI (SN12C renal): 26.4 µM
GI50 (RXF 393 renal): 0.358 µM
TGI (RXF 393 renal): 12.3 µM
GI50 (HL-60(TB) leukemia): 0.397 µM
TGI (HL-60(TB) leukemia): 1.53 µM
GI50 (EKVX NSCLC): 10.1 µM
TGI (EKVX NSCLC): 24.5 µM
GI50 (NCI-H226 lung): 3.06 µM
TGI (NCI-H226 lung): 20.1 µM
GI50 (OVCAR-3 ovarian): 0.41 µM
TGI (OVCAR-3 ovarian): 18.2 µM
GI50 (PC-3 prostate): 11.7 µM
TGI (PC-3 prostate): 24.7 µM
GI50 (KM12 colon): 0.124 µM
TGI (KM12 colon): 16.1 µM
GI50 (OVCAR-4 ovarian): 16.6 µM
TGI (OVCAR-4 ovarian): 58.5 µM
GI50 (ACHN renal): 14.6 µM
TGI (ACHN renal): 48.9 µM
GI50 (SNB-75 CNS): 0.972 µM
TGI (SNB-75 CNS): 28.5 µM
GI50 (MOLT-4 leukemia): 0.0886 µM
TGI (MOLT-4 leukemia): 1.05 µM
GI50 (NCI-H23 lung): 0.562 µM
TGI (NCI-H23 lung): 20.8 µM
GI50 (SF-539 CNS): 3.09 µM
TGI (SF-539 CNS): 20.6 µM
GI50 (MDA-MB-231 breast): 11.7 µM
TGI (MDA-MB-231 breast): 31.3 µM
GI50 (SK-OV-3 ovarian): 11.5 µM
TGI (SK-OV-3 ovarian): 26.3 µM
GI50 (A498 renal): 11.6 µM
TGI (A498 renal): 25 µM
GI50 (HOP-92 NSCLC): 10.4 µM
TGI (HOP-92 NSCLC): 22.9 µM
GI50 (UACC-257 melanoma): 19.6 µM
TGI (UACC-257 melanoma): 54.5 µM
GI50 (HOP-62 NSCLC): 1.89 µM
TGI (HOP-62 NSCLC): 20.2 µM
GI50 (SNB-19 CNS): 12.1 µM
TGI (SNB-19 CNS): 29.6 µM
GI50 (TK-10 renal): 13.3 µM
TGI (TK-10 renal): 31.3 µM
GI50 (NCI-H322M lung): 16.5 µM
TGI (NCI-H322M lung): 32.6 µM
GI50 (COLO 205 colon): 0.609 µM
TGI (COLO 205 colon): 21.7 µM
GI50 (CAKI-1 renal): 11.3 µM
TGI (CAKI-1 renal): 25.5 µM
GI50 (DU-145 prostate): 10.7 µM
TGI (DU-145 prostate): 26.2 µM
GI50 (BT-549 breast): 0.573 µM
TGI (BT-549 breast): 22.3 µM
GI50 (LOX IMVI melanoma): 10.3 µM
TGI (LOX IMVI melanoma): 22.1 µM
GI50 (SF-295 CNS): 2.02 µM
TGI (SF-295 CNS): 23.4 µM
GI50 (M14 melanoma): 0.381 µM
TGI (M14 melanoma): 21.4 µM
GI50 (HS 578T breast): 0.0962 µM
TGI (HS 578T breast): 17.9 µM
GI50 (SK-MEL-28 melanoma): 15.7 µM
TGI (SK-MEL-28 melanoma): 61.1 µM
GI50 (IGROV1 ovarian): 13.4 µM
TGI (IGROV1 ovarian): 27.6 µM
GI50 (UO-31 renal): 14 µM
TGI (UO-31 renal): 27.7 µM
GI50 (HT29 colon): 4.21 µM
TGI (HT29 colon): 17.1 µM
GI50 (HCT-116 colon): 0.0796 µM
TGI (HCT-116 colon): 17.6 µM
GI50 (A549 NSCLC): 8.56 µM
TGI (A549 NSCLC): 24.2 µM
GI50 (NCI/ADR-RES ovarian): 0.329 µM
TGI (NCI/ADR-RES ovarian): 13.3 µM
GI50 (SR leukemia): 0.0417 µM
TGI (SR leukemia): 0.105 µM
GI50 (OVCAR-8 ovarian): 0.46 µM
TGI (OVCAR-8 ovarian): 20.3 µM
GI50 (MDA-MB-468 breast): 0.122 µM
TGI (MDA-MB-468 breast): 0.288 µM
GI50 (CCRF-CEM leukemia): 0.249 µM
TGI (CCRF-CEM leukemia): 1.1 µM
GI50 (SW-620 colon): 1.2 µM
TGI (SW-620 colon): 19.9 µM
GI50 (SF-268 CNS): 0.3 µM
TGI (SF-268 CNS): 28 µM
GI50 (HCC-2998 colon): 16 µM
TGI (HCC-2998 colon): 29.7 µM
GI50 (K-562 leukemia): 0.313 µM
TGI (K-562 leukemia): 1.27 µM
GI50 (HCT-15 colon): 5.24 µM
TGI (HCT-15 colon): 21.3 µM
